Source: patent US20060025326A1, “Method for treating carrier particles and its use” (LAB Pharma Oy, priority 2002, published 2006)

Assay: Microcalorimetric study of amorphous material
Format: physicochemical
Conditions: microcalorimetric study / detected in this work

Compound: CC(C)(C)NCC(O)c1ccc(O)c(CO)c1 (stereo not shown) [salbutamol]
- amorphous (unstable) material: some amorphous material
